Measured values reported in US9828357B2, “Cyclic compounds” (Takeda Pharmaceutical Company Limited, priority 2015, dated 2017).

How the values were obtained:
TLR4 = target: T1, TLR4 (Mus musculus, UniProt Q9QUK6); test: Inhibitory effect with respect to NO production (LPS/interferon γ-stimulated RAW264.7); format: cell-based, murine; details: RAW264.7 cells, LPS 1.25 ng/mL and mouse interferon γ 0.2 ng/mL, nitrite ion in culture supernatant
T1 construct: endogenous in cells; host or cells: RAW264.7 (murine macrophage cell line)
T1 sequence (Q9QUK6 26-835): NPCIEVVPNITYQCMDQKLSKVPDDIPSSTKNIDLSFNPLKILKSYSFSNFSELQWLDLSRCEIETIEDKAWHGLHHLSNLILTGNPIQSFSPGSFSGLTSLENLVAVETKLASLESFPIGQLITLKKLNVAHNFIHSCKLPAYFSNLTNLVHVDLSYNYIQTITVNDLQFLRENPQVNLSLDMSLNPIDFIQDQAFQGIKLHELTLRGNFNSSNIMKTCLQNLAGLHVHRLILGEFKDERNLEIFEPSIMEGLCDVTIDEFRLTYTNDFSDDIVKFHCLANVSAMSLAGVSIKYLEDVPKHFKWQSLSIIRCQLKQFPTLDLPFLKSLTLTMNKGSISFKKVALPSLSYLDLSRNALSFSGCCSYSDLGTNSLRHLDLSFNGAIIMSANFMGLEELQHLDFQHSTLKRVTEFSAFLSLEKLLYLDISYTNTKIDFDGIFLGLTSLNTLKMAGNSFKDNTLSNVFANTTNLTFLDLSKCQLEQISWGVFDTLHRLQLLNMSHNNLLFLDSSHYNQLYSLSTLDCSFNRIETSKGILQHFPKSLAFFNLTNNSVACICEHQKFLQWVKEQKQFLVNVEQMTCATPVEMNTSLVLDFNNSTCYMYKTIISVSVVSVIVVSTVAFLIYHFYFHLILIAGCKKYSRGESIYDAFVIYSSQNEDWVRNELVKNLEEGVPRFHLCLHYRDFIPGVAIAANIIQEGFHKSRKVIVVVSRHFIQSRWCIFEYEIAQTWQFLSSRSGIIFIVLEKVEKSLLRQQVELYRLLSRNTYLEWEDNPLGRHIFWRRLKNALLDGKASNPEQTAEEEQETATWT
T1 sequence (Q9JHF9 19-160 partner): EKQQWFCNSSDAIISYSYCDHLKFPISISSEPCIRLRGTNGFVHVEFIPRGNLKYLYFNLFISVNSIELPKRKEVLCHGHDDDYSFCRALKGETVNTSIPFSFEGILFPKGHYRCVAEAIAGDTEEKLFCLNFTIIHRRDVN
Method: The inhibitory effect on TLR4 was determined using the inhibition rate due to the test compound with respect to NO production as a result of addition of lipopolysaccharide (LPS) using murine macrophage cell line RAW264.7. The cells were adjusted to 2×10^6 cells/mL using RPM1-1640 culture medium (phenol red free) supplemented with 10% inactivated bovine fetal serum, and were plated on 384 well plate so as to contain 6×10^4 cells/30 μL per well. Thereafter the cells were cultured at 37° C. overnight under 5% CO2/95% air. The test compound dissolved in DMSO was diluted 200 times using RPM1-1640 culture medium and adjusted so as to form a compound concentration of 500 nM. The prepared test compound 10 μL (final concentration 100 nM) was added to the cells, and LPS (Sigma) and mouse interferon γ (Wako Pure Chemicals) were added in amounts of 10 μL so as to form final concentrations of 1.25 ng/mL and 0.2 ng/mL respectively. The cells were further cultured overnight, and then the nitrite ion (stable NO metabolite) concentration in the culture supernatant was measured as an index of NO production. The nitrite ion concentration was assayed by adding 10 μL of 20 μg/mL 2,3-diamino naphthalene (DAN) dissolved in 0.2N HCl to 20 μL culture supernatant, incubating at room temperature for ten minutes, and then adding 10 μL of 0.5N NaOH, and measuring the fluorescent value at 460 nm (excitation wavelength 355 nm) using an EnVision plate reader (Perkin Elmer). The NO production inhibition rate (%) was calculated using the value without the addition of stimulating agent as control of 100% inhibition, and the value without the addition of the compound as control of 0% inhibition.

[1] = tested on: liver injury by Galactosamine/LPS stimulation; test: Action on liver injury by Galactosamine/LPS stimulation (blood plasma ALT); format: in vivo; details: BALB/c mice; for ALT amount in the blood plasma: 8 hr, mean ± standard error
Method: The action on liver injury by Galactosamine/LPS stimulation was evaluated by elevation of blood alanine transaminase (ALT) amount as an index. Galactosamine (700 mg/kg) and LPS (5 μg/kg) were administered intraperitoneally to BALB/c mice (female, 7 weeks old, Japan Charles River). After 8 hr, the blood was collected in the presence of heparin. The obtained blood was centrifuged (4° C., 10000×rpm, 10 min), and the blood plasma was collected, and the ALT amount in the blood plasma was measured by 7180 type Hitachi automated analytical apparatus (Hitachi High-Technologies Corporation). Compound 6 was dissolved in 10% captisol solution (0.3, 1, 3 mg/kg), and the solution was administered intravenously to the mice in the tail vein 1 hr before Galactosamine/LPS administration.

TLR4 signal = test: Inhibitory effect on TNFα production from HMGB-1 stimulated human Kupffer cell; format: cell-based; details: human primary Kupffer cells, HMGB-1 10 μg/mL, 24 hr
Method: TLR4 signal inhibitory activity in human Kupffer cell was evaluated as an inhibition rate of the test compound for TNFα produced by addition of HMGB-1 (SHINO-TEST), using human primary Kupffer cells (Cat# HUKCCS, Lot#HK8226) purchase from GIBCO. Cell suspension prepared in RPMI 1640-Gluta MAX™ medium supplemented with 10% inactivated bovine fetal serum was plated in 96-well I-type collagen-coated plate so as to contain 3.1×10^4 cells/100 μL/well. Then, the cells were cultured for 6 hr at 37° C. under 5% CO2/95% air to be adhered to the bottom of the plate. The non-adhered cells were rinsed off with PBS, and the test compound dissolved in DMSO was added to the adhered cells (final concentration: 1, 10, 100 nM), and the mixture was cultured for 1 hr. Then, HMGB-1 was added thereto (final concentration: 10 μg/mL), and the mixture was incubated for additional 24 hr. TNFα production amount contained in the culture supernatant was quantified by ELISA method (R&D systems). TNFα production inhibition rate (%) was calculated using the value under the HMGB-1-free condition as control of 100% inhibition and the value under the compound-free condition as control of 0% inhibition.

CCOC(=O)C1=CC2(CC[C@H]1S(=O)(=O)[C@H]1CCc3cccc(Cl)c31)O[C@H](CO)[C@@H](CO)O2 [Compound 6, Ethyl (2R,3R,8R)-8-(((1S)-7-chloro-2,3-dihydro-1H-inden-1-yl)sulfonyl)-2,3-bis(hydroxymethyl)-1,4-dioxaspiro[4.5]dec-6-ene-7-carboxylate]
NO production inhibitory effect at 100 nM (% inhibition) (TLR4): 103 % inhibition | ALT amount in the blood plasma ([1]; 0.3 mg/kg i.v. 1 hr before Galactosamine/LPS): 570 ± 94 IU/L | ALT amount in the blood plasma ([1]; 1 mg/kg i.v. 1 hr before Galactosamine/LPS): 361 ± 60 IU/L | ALT amount in the blood plasma ([1]; 3 mg/kg i.v. 1 hr before Galactosamine/LPS): 104 ± 10 IU/L | Effect on the increase in the ALT amount in the blood plasma due to Galactosamine/LPS stimulation (in words) ([1]; 0.3, 1, 3 mg/kg i.v.): dose-dependently and significantly inhibited the increase in the ALT amount | TNFα production inhibition rate (% inhibition) (TLR4 signal; compound concentration 1 nM): 45 % inhibition | TNFα production inhibition rate (% inhibition) (TLR4 signal; compound concentration 10 nM): 82 % inhibition | TNFα production inhibition rate (% inhibition) (TLR4 signal; compound concentration 100 nM): 85 % inhibition
